Laboratory results taken from patent publication US20100105651A1, “ANTAGONISTS OF SNS SODIUM CHANNELS” (priority 2005, published 2010).

Each compound was assayed against T1, human NaV1.8 (hNaV1.8) ion channel (Homo sapiens, UniProt Q9Y5Y9) (assay: Inhibition of Human NaV1.8 stably expressed in SH-SY-5Y cells (membrane potential dye fluorescence assay)). Settings: SH-SY-5Y cells stably expressing hNaV1.8; FLIPR membrane potential dye; 10 μM pyrethroid, 250 nM TTX; test range 100 μM-0.05 μM; read-out: hNav1.8 IC50.
T1 construct: expressed in transfected cells
T1 sequence (Q9Y5Y9 whole entry): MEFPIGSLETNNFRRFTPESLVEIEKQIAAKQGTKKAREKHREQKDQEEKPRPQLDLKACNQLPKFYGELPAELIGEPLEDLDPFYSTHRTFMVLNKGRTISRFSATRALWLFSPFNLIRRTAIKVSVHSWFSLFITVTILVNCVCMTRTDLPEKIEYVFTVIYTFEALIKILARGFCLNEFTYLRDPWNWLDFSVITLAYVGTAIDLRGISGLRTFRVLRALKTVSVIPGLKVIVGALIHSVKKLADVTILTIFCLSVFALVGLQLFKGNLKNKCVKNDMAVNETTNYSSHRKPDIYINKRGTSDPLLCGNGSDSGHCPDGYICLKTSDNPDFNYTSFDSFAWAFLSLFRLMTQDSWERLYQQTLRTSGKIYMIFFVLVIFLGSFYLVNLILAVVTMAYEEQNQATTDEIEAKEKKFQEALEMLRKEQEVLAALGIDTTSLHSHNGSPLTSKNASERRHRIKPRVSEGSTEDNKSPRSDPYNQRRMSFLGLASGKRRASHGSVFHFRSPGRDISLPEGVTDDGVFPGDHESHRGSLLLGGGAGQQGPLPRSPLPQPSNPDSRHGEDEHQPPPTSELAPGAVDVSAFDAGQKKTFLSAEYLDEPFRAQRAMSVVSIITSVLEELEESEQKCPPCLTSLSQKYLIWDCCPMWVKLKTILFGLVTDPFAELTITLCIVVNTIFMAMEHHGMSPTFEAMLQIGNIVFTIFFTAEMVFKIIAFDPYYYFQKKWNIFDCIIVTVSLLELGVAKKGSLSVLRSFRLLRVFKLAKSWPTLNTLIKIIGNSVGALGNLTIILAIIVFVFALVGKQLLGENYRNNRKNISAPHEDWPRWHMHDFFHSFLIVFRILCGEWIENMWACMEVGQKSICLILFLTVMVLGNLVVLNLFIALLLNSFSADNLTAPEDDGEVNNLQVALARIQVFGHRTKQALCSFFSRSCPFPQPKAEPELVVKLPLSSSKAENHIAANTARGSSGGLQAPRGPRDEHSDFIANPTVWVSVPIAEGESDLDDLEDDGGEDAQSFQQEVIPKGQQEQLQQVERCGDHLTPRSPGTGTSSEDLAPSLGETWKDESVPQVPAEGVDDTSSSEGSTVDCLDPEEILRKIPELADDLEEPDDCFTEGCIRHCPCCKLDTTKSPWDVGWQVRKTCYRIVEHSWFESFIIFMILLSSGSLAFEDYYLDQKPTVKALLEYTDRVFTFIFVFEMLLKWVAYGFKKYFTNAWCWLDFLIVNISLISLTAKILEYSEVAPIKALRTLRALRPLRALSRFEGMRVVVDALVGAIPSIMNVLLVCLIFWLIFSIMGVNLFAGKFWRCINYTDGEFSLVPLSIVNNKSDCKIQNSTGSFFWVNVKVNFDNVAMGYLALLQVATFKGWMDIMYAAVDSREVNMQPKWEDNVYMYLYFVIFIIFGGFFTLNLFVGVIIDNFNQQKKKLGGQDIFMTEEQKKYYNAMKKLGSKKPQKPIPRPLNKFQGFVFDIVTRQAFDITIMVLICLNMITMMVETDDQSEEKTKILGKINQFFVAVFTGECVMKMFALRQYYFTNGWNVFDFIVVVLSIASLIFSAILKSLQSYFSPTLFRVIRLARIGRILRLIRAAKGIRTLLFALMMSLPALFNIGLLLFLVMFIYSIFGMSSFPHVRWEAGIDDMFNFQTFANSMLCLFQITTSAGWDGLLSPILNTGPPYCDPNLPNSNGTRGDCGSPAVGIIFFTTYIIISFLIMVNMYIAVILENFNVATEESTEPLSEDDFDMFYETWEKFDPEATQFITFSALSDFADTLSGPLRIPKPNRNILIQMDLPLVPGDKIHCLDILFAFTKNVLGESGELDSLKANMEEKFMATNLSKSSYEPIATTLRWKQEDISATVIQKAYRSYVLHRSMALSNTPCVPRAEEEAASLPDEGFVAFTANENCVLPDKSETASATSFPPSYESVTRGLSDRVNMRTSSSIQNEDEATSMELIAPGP
Format: cell-based
Description: Inhibition of Human NaV1.8 stably expressed in SH-SY-5Y cells
A SH-SY-5Y neuroblastoma cell line stably expressing the human NaV1.8 (hNaV1.8) ion channel was constructed. This cell line has been used to develop a medium to high throughput assay for determining the ability of test compounds to inhibit membrane depolarisation mediated via the hNaV1.8 channel.
SH-SY-5Y hNaV1.8 are grown in adherent monolayer culture using 50:50 Ham's F-12/EMEM tissue culture medium supplemented with 15% (v/v) foetal bovine serum; 2 mM L-glutamine, 1% NEAA and 600 μg·ml^−1 Geneticin sulphate. Cells are removed from the tissue culture flask using trypsin/EDTA and re-plated into black walled, clear bottom 96-well assay plates at 50,000 cells·well^−1 24 hours prior to assay.
On the day of assay the cell assay plates are washed to remove cell culture medium using a sodium free assay buffer (145 mM tetramethyl ammonium chloride; 2 mM calcium chloride; 0.8 mM magnesium chloride hexahydrate; 10 mM HEPES; 10 mM glucose; 5 mM potassium chloride, pH 7.4). Fluorescent membrane potential dye solution (FLIPR™ membrane potential dye, Molecular Devices Corporation), containing 10 μM of a pyrethroid to prevent channel inactivation and 250 nM tetrodotoxin (TTX) to reduce interference from TTX-sensitive sodium channels present in the cell line. Test compound, initially dissolved in dimethyl sulfoxide but further diluted in sodium free buffer, is added to achieve the final test concentration range of 100 μM-0.05 μM.
Cell plates are incubated for 30 minutes at room temperature to allow equilibration of dye and test compound. Plates are then transferred to a fluorescence plate reader for fluorescence measurement using an excitation wavelength of 530 nm whilst measuring fluorescence emission at 565 nm. […] Membrane depolarisation is registered by an increase in fluorescence emission at 565 nm.
The change in fluorescence seen in each test well upon the addition of sodium containing buffer is calculated relative to the baseline fluorescence for that well. This figure is then used for calculating the IC50 for each test compound.

Row | Compound | IC50
1 | CC(NC1CN(C(=O)NC(c2ccc(F)cc2)c2ccc(F)cc2)C1)c1ccc(F)cc1 (centres unmarked) [Example 2, 3-[1-(4-Fluoro-phenyl)-ethylamino]-azetidine-1-carboxylic acid [bis-(4-fluoro-phenyl)-methyl]-amide] | 2620 nM
2 | CC(NC(=O)N1CC(NC2Cc3ccccc3C2)C1)c1ccc(C(F)(F)F)cc1 (centres unmarked) [Example 3, 3-(Indan-2-ylamino)-azetidine-1-carboxylic acid [1-(4-trifluoromethyl-phenyl)-ethyl]-amide] | 2980 nM
3 | CC(NC(=O)N1CC(NC2CCc3ccccc3C2)C1)c1ccc(C(F)(F)F)cc1 (centres unmarked) [Example 4, 3-(1,2,3,4-Tetrahydro-naphthalen-2-ylamino)-azetidine-1-carboxylic acid [1-(4-trifluoromethyl-phenyl)-ethyl]-amide] | 3320 nM
4 | CC(NC(=O)N1CC(NC2CCc3cc(F)ccc3C2)C1)c1ccc(C(F)(F)F)cc1 (centres unmarked) [Example 5, 3-(6-Fluoro-1,2,3,4-tetrahydro-naphthalen-2-ylamino)-azetidine-1-carboxylic acid [1-(4-trifluoromethyl-phenyl)-ethyl]-amide] | 1740 nM
5 | CCCCOc1ccc(NC(=O)N2CC(NC3CCc4cc(F)ccc43)C2)cc1 (centres unmarked) [Example 6, 3-(5-Fluoro-indan-1-ylamino)-azetidine-1-carboxylic acid (4-butoxy-phenyl)-amide] | 1200 nM
6 | O=C(Nc1ccc(Oc2ccc(F)cc2)cc1)N1CC(NC2CCc3cc(F)ccc32)C1 (centres unmarked) [Example 7, 3-(5-Fluoro-indan-1-ylamino)-azetidine-1-carboxylic acid [4-(4-fluoro-phenoxy)-phenyl]-amide] | 250 nM
7 | O=C(Nc1ccc(Oc2ccc(F)cc2)cc1)N1CC(NC2CCc3cc(F)ccc3C2)C1 (centres unmarked) [Example 8, 3-(6-Fluoro-1,2,3,4-tetrahydro-naphthalen-2-ylamino)-azetidine-1-carboxylic acid [4-(4-fluoro-phenoxy)-phenyl]-amide] | 310 nM
8 | O=C(Nc1ccc(Oc2ccc(F)cc2)c(F)c1)N1CC(NC2CCc3cc(F)ccc32)C1 (centres unmarked) [Example 11, 3-(5-Fluoro-indan-1-ylamino)-azetidine-1-carboxylic acid [3-fluoro-4-(4-fluoro-phenoxy)-phenyl]-amide] | 460 nM
9 | O=C(Nc1ccc(Oc2ccc(F)cc2)cc1)N1CC(NC2CCc3cc(O)ccc32)C1 (centres unmarked) [Example 12, 3-(5-Hydroxy-indan-1-ylamino)-azetidine-1-carboxylic acid [4-(4-fluoro-phenoxy)-phenyl]-amide] | 1350 nM
10 | O=C(Nc1ccc(Oc2cccc(F)c2)cc1)N1CC(NC2CCc3cc(F)ccc32)C1 (centres unmarked) [Example 13, 3-(5-Fluoro-indan-1-ylamino)-azetidine-1-carboxylic acid [4-(3-fluoro-phenoxy)-phenyl]-amide] | 310 nM
11 | O=C(Nc1ccc(Oc2ccccc2F)cc1)N1CC(NC2CCc3cc(F)ccc32)C1 (centres unmarked) [Example 14, 3-(5-Fluoro-indan-1-ylamino)-azetidine-1-carboxylic acid [4-(2-fluoro-phenoxy)-phenyl]-amide] | 540 nM
12 | O=C(Nc1ccc(Oc2ccc(F)cc2)c(F)c1)N1CC(NC2CCc3cc(Cl)ccc32)C1 (centres unmarked) [Example 15, 3-(5-Chloro-indan-1-ylamino)-azetidine-1-carboxylic acid [3-fluoro-4-(4-fluoro-phenoxy)-phenyl]-amide] | 650 nM
13 | O=C(Nc1ccc(Oc2ccc(F)cc2)c(F)c1)N1CC(NC2CCc3cc(Br)ccc32)C1 (centres unmarked) [Example 16, 3-(5-Bromo-indan-1-ylamino)-azetidine-1-carboxylic acid [3-fluoro-4-(4-fluoro-phenoxy)-phenyl]-amide] | 1720 nM
14 | O=C(Nc1ccc(Oc2ccc(F)cc2)cc1)N1CC(NC2CCc3cc(Br)ccc32)C1 (centres unmarked) [Example 17, 3-(5-Bromo-indan-1-ylamino)-azetidine-1-carboxylic acid [4-(4-fluoro-phenoxy)-phenyl]-amide] | 540 nM
15 | O=C(Nc1ccc(Oc2ccc(F)cc2)cc1)N1CC(NC2CCc3cc(Cl)ccc32)C1 (centres unmarked) [Example 18, 3-(5-Chloro-indan-1-ylamino)-azetidine-1-carboxylic acid [4-(4-fluoro-phenoxy)-phenyl]-amide] | 620 nM
16 | O=C(Nc1ccc(Oc2ccc(F)cc2)cc1)N1CC(NC2CCCc3ccccc32)C1 (centres unmarked) [Example 19, 3-(1,2,3,4-Tetrahydro-naphthalen-1-ylamino)-azetidine-1-carboxylic acid [4-(4-fluoro-phenoxy)-phenyl]-amide] | 190 nM

Row | Compound | IC50
17 | CN(C(=O)N1CC(NC2CCc3cc(F)ccc32)C1)c1ccc(Oc2ccc(F)cc2)cc1 (centres unmarked) [Example 20, 3-(5-Fluoro-indan-1-ylamino)-azetidine-1-carboxylic acid [4-(4-fluoro-phenoxy)-phenyl]-methyl-amide] | 700 nM
18 | COc1ccc2c(c1)CCC2NC1CN(C(=O)Nc2ccc(Oc3ccc(F)cc3)cc2)C1 (centres unmarked) [Example 21, 3-(5-Methoxy-indan-1-ylamino)-azetidine-1-carboxylic acid [4-(4-fluoro-phenoxy)-phenyl]-amide] | 310 nM
19 | O=C(Nc1ccc(C(F)(F)F)cc1)N1CC(NC2CCc3cc(F)ccc32)C1 (centres unmarked) [Example 22, 3-(5-Fluoro-indan-1-ylamino)-azetidine-1-carboxylic acid (4-trifluoromethyl-phenyl)-amide] | 3110 nM
20 | O=C(Nc1cccc(C(F)(F)F)c1)N1CC(NC2CCc3cc(F)ccc32)C1 (centres unmarked) [Example 24, 3-(5-Fluoro-indan-1-ylamino)-azetidine-1-carboxylic acid (3-trifluoromethyl-phenyl)-amide] | 2680 nM
21 | CC1Cc2ccccc2C1NC1CN(C(=O)Nc2ccc(Oc3ccccc3)cc2)C1 (centres unmarked) [Example 25, 3-(2-Methyl-indan-1-ylamino)-azetidine-1-carboxylic acid (4-phenoxy-phenyl)-amide] | 840 nM
22 | CC1CC(NC2CN(C(=O)Nc3ccc(Oc4ccccc4)cc3)C2)c2ccccc21 (centres unmarked) [Example 26, 3-(3-Methyl-indan-1-ylamino)-azetidine-1-carboxylic acid (4-phenoxy-phenyl)-amide] | 240 nM
23 | O=C(Nc1ccc(Oc2ccccc2)cc1)N1CC(NC2CCc3cc(F)ccc32)C1 (centres unmarked) [Example 27, 3-(5-Fluoro-indan-1-ylamino)-azetidine-1-carboxylic acid (4-phenoxy-phenyl)-amide] | 270 nM
24 | O=C(Nc1cccc(Oc2ccccc2)c1)N1CC(NC2CCc3cc(F)ccc32)C1 (centres unmarked) [Example 28, 3-(5-Fluoro-indan-1-ylamino)-azetidine-1-carboxylic acid (3-phenoxy-phenyl)-amide] | 430 nM
25 | CN(C1CN(C(=O)Nc2cccc(Oc3ccccc3)c2)C1)C1CCc2cc(F)ccc21 (centres unmarked) [Example 29, 3-[(5-Fluoro-indan-1-yl)-methyl-amino]-azetidine-1-carboxylic acid (3-phenoxy-phenyl)-amide] | 420 nM
26 | O=C(Nc1ccc(Oc2ccccc2)cc1)N1CC(NC2CCc3ccccc32)C1 (centres unmarked) [Example 30, 3-(Indan-1-ylamino)-azetidine-1-carboxylic acid (4-phenoxy-phenyl)-amide] | 260 nM
27 | O=C(c1ccccc1)c1ccc(NC(=O)N2CC(NC3CCc4cc(F)ccc43)C2)cc1 (centres unmarked) [Example 31, 3-(5-Fluoro-indan-1-ylamino)-azetidine-1-carboxylic acid (4-benzoyl-phenyl)-amide] | 7250 nM
28 | O=C(Nc1ccc(C(F)(F)F)cc1)N1CC(NC2CCc3ccccc3C2)C1 (centres unmarked) [Example 32, 3-(1,2,3,4-Tetrahydro-naphthalen-2-ylamino)-azetidine-1-carboxylic acid (4-trifluoromethyl-phenyl)-amide] | 450 nM
29 | O=C(Nc1ccc(C(F)(F)F)cc1)N1CC(NC2CCc3cc(O)ccc32)C1 (centres unmarked) [Example 33, 3-(5-Hydroxy-indan-1-ylamino)-azetidine-1-carboxylic acid (4-trifluoromethyl-phenyl)-amide] | 11500 nM
30 | O=C(Nc1ccc(Oc2ccccc2)cc1)N1CC(NC2CCc3ccccc3C2)C1 (centres unmarked) [Example 34, 3-(1,2,3,4-Tetrahydro-naphthalen-2-ylamino)-azetidine-1-carboxylic acid (4-phenoxy-phenyl)-amide] | 100 nM
31 | O=C(Nc1ccc(C(F)(F)F)cc1)N1CC(NC2CCc3cc(F)ccc3C2)C1 (centres unmarked) [Example 35, 3-(6-Fluoro-1,2,3,4-tetrahydro-naphthalen-2-ylamino)-azetidine-1-carboxylic acid (4-trifluoromethyl-phenyl)-amide] | 1310 nM

Same assay, conditions: hNav1.8 IC50, SH-SY-5Y cells stably expressing hNaV1.8; FLIPR membrane potential dye; 10 μM pyrethroid, 250 nM TTX; test range 100 μM-0.05 μM

Row | Compound | IC50
32 | Cc1ccccc1CC(C)NC1CN(C(=O)NC(C)c2ccc(C(F)(F)F)cc2)C1 (centres unmarked) [Example 1, 3-(1-Methyl-2-o-tolyl-ethylamino)-azetidine-1-carboxylic acid [1-(4-trifluoromethyl-phenyl)-ethyl]-amide] | 1300 nM
